Assay results taken from article PMC7661967, “Magnetic Resonance Molecular Imaging of Extradomain B Fibronectin Improves Imaging of Pancreatic Cancer Tumor Xenografts” (Frontiers in Oncology, 2020).
“Also recorded” adds a separate entry of the source. No end group written: not given here.

Tests used:
[1] = tested on: Capan-1 flank tumor xenografts; test: MRMI of Capan-1 flank tumor xenografts (7T); format: in vivo, human cells in female nu/nu mice
Description: For flank xenograft models, 4 × 10^6 Capan-1 cells suspended in 100 μL of a 6 mg/mL Matrigel (Corning, Corning, NY) solution was injected subcutaneously into the flank of 8-week-old female nu/nu mice. The tumor bearing mice were imaged after tumor volumes exceeded 300 mm^3. For orthotopic intrapancreatic models, the pancreas of 4-week-old female nu/nu mice were surgically exposed via a ~10 mm incision in the left ventral abdomen and the application of gentle pressure to express the spleen and associated pancreatic tissue. 1 × 10^6 BxPC3-GFP-Luc or PANC-1-GFP-Luc cells suspended in 100 μL of a Matrigel solution (6 mg/mL) was injected into the pancreatic tissue using an insulin syringe with a 31G needle. Any leakage of cell suspension was lavaged with DPBS twice to prevent intraabdominal seeding PaCa cells. The peritoneal fascia was closed with absorbable stitches, and the dermis closed with stainless steel wound clips. Prior to imaging, growth of tumor was verified by bioluminescence imaging with intraperitoneal injection of d-luciferin on IVIS Spectrum system (Perkin Elmer, Waltham, MA).
(§1) Flank tumor-bearing mice were anesthetized and a tail vein catheter inserted. MR image acquisition was performed on a 7T Biospin (Bruker, Billerica, MA) preclinical small animal scanner with a volume radiofrequency coil. Axial images were obtained using a multi-spin multi-echo (MSME) MRI sequence (500 ms TR, 8.1 ms TE, 90° FA, 4.50 cm × 4.50 cm FOV, 1.50 mm slice thickness, 16 slices, 2 averages, 200 × 200 matrix, 0.0225 × 0.0225 cm/pixel resolution). Contrast agents were injected at a dose of 0.1 mmol/kg (100 μL) via the tail vein catheter, followed by a saline flush. Images of the tumors were acquired before contrast and at various time points after contrast administration. Gd(HP-DO3A) was used as a control.
Image files were exported and analyzed in Horus software. ROIs were drawn in the tumor, liver, kidney, and muscle. Muscle ROIs were taken from the muscle, with other structures (liver, kidney, tumor) identified after comparison with published images and comparison with anatomical landmarks or bioluminescent imaging. Pancreatic lesions were localized using the liver, kidney, and spleen as anatomical landmarks. […] Size of ROIs drawn for image analysis are summarized in Supplementary Table 1. The contrast-to-noise ratio of the tumor (CNR) was calculated using the following equation, where σnoise is the standard deviation of intensities from an ROI drawn outside of the mouse body:
CNR=Mean IntensityTumor-Mean IntensityMuscle/σnoise.
Image subtraction was performed on images adjusted to the same window and level in FIJI open-source software.
Image contrast was reported as fold enhancement of contrast to noise ratio of post-contrast images over pre-contrast images using Fold Enhancement = CNRpost/CNRpre. Statistical analysis of CNR was performed in Minitab Express (Minitab Inc., State College, PA). One-way ANOVA with Fisher Individual Tests for Differences of Means post-hoc testing was performed to determine statistical significance between >2 means (p < 0.05). Student's T test was used to determine statistical significance between 2 means (p < 0.05).

[2] = target: T1, EDB fragment of FN (Homo sapiens, UniProt P02751); test: Microscale thermophoresis binding affinity; details: MST
T1 construct: The EDB fragment of FN was expressed in E. coli; made in house; host or cells: E. coli
T1 sequence (P02751 1271-1359 limits assumed): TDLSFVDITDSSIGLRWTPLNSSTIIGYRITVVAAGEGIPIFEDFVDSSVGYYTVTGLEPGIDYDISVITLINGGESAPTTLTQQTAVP
Description: The binding affinity of MT218 was determined with microscale thermophoresis (MST) using a Nanotemper Monolith NT.115 instrument (NanoTemper Technologies, Munich, Germany). The EDB fragment of FN was expressed in E. coli, purified, and labeled with amine-reactive dye NT-647. MT218 was dissolved into assay buffer (50 mM PBS w/0.05% Tween-20). This solution was further diluted using assay buffer to give a series of MT218 working solutions. Each MT218 working solution was then mixed with a fixed concentration of fluorescently labeled EDB fragment. The mixtures of MT218 and EDB were then loaded into standard capillaries, and MST measurements were performed at 25°C using 20–80% light-emitting diode power and 40% infrared-laser power at varying concentrations of MT218.

[3] = Liver CNR in contrast-enhanced MRI; format: in vivo, nu/nu mice; details: for liver CNR, MT218 vs Gd(HP-DO3A): 0.1 mmol/kg, p > 0.05
Description: as §1
Mice bearing intrapancreatic tumors were anesthetized and a tail vein catheter was inserted. Image acquisition was performed on a MR Solutions 3T MRS 3000 scanner with a mouse radiofrequency coil. Axial images were obtained using a Fast Spin Echo (FSE) MRI sequence (305 ms TR, 11 ms TE, 90° FA, 4 cm × 4 cm FOV, 1 mm slice thickness, 10 slices, echo train length = 4, echo spacing = 11 ms, 4 averages, 256 × 256 matrix, 0.0156 × […] cm/pixel resolution) with respiratory gating. Images were acquired before contrast and at different time points after contrast injection at a dose of 0.1 mmol/kg (100 μL). For competitive binding experiments, a 5:1 molar ratio of free ZD2 peptide to MT218 was injected in mice bearing intrapancreatic BxPC3 tumor xenografts (n = 3) at a dose of 0.1 mmol MT218/kg (100 μL). Images obtained on the MR Solutions 3T scanner were normalized using the Surscalereader.exe (MR Solutions, Guildford, UK) program supplied.
Image files were exported and analyzed in Horus software. ROIs were drawn in the tumor, liver, kidney, and muscle. […] The contrast-to-noise ratio of the tumor (CNR) was calculated using the following equation, where σnoise is the standard deviation of intensities from an ROI drawn outside of the mouse body:
The contrast to noise ratio of the liver (CNR) was calculated using the following equation: […]

ZD2-N3-Gd(HP-DO3A) (TVRTSAD; also: conjugated via N3 to Gd(HP-DO3A) contrast agent, end not given here) [MT218, small molecular conjugate of ZD2 peptide to a macrocyclic clinical MRI contrast agent Gd(HP-DO3A)]
contrast enhancement in tumor periphery ([1]; 0.1 mmol/kg, 5 min post-injection, MT218 vs Gd(HP-DO3A)): Stronger contrast enhancement
maximum increase of tumor CNR (post/pre) ([1]; 0.1 mmol/kg, 15 min post-injection, MT218 n = 7): 4.8 fold
contrast enhancement in tumor core ([1]; 0.1 mmol/kg, after injection): gradually increased
enhancement in tumor periphery, subtraction images ([1]; 0.1 mmol/kg, early time points (5–15 min post-contrast)): strong initial enhancement
contrast enhancement throughout tumors, subtraction images ([1]; 0.1 mmol/kg, later time points (25–35 min) for MT218, all time points for Gd(HP-DO3A)): robust tumor contrast enhancement throughout the tumors
duration for which CNR increase maintained ([1]; 0.1 mmol/kg, post-injection): at least 35 min
MT218 CNR relative to Gd(HP-DO3A) control ([1]; Capan-1 flank, control Gd(HP-DO3A), p < 0.05): 273%
CNR relative to clinical agent ([1]; Capan-1 flank, vs Gd(HP-DO3A), p < 0.05): 2.7 times
binding affinity (in words) ([2]; MT218 to EDB-FN): micromolar affinity; also recorded: moderate binding affinity
Kd ([2]; NT-647-labeled EDB fragment, 50 mM PBS w/0.05% Tween-20, 25°C): 3.2 ± 0.2 µM
liver CNR, MT218 vs Gd(HP-DO3A) ([3]; BxPC3-GFP-Luc and PANC-1-GFP-Luc intrapancreatic models): No difference in CNR
liver CNR, MT218 vs Gd(HP-DO3A) ([3]; Capan-1 flank model): No significant difference in CNR
non-specific signal enhancement in hepatic tissue ([3]; MRMI with MT218): Minimal non-specific signal enhancement
